Series [1] can be described thus: Cytotoxicity against dog MDCK cells assessed as reduction in cell viability incubated for 48 hrs by CellTiter96 Aqueous one solution assay. The format is toxicity, cell-based, Canis lupus familiaris.
In the next series the test system is Influenza A virus. The series is described as follows: Antiviral activity against Influenza A virus A/WSN/33(H1N1) infected in dog MDCK cells assessed as reduction in viral titer in supernatants incubated for 24 hrs by plaque assay. Format: functional, organism-based.

For `CNc1ncnc2c([C@@H]3O[C@H](CO)[C@@H](O)[C@H]3O)n[nH]c12`, the 50% cytotoxic concentration (CC50) at 48 h in series [1] came to 1.5 µM. Also, the half-maximal inhibitory concentration (IC50) in the series on Influenza A virus turned out to be 0.015 µM. As for `CSc1ncnc2c([C@@H]3O[C@H](CO)[C@@H](O)[C@H]3O)n[nH]c12`, the CC50 at 48 h in series [1] came out at 9.3 µM. Further, in the series with Influenza A virus, the half-maximal inhibitory concentration (IC50) stood at 0.01 µM. Consider `OC[C@H]1O[C@@H](c2n[nH]c3c(N4CCOCC4)ncnc23)[C@H](O)[C@@H]1O`, for which the CC50 at 48 h in series [1] was > 1000 µM. `CSc1ncnc2c([C@@H]3O[C@H](CO)[C@@H](O)[C@@H]3O)n[nH]c12`: the CC50 at 48 h in series [1] is > 1000 µM. The IC50 in the series on Influenza A virus is > 3 µM.

In the case of `CC(C)Sc1ncnc2c([C@@H]3O[C@H](CO)[C@@H](O)[C@H]3O)n[nH]c12`, the CC50 at 48 h in series [1] was found to be 503 µM. Regarding `CC(C)Nc1ncnc2c([C@@H]3O[C@H](CO)[C@@H](O)[C@H]3O)n[nH]c12`, the CC50 at 48 h in series [1] was > 1000 µM.

As for `OC[C@H]1O[C@@H](c2n[nH]c3c(N4CCCCC4)ncnc23)[C@H](O)[C@@H]1O`, in series [1], the CC50 at 48 h stood at 289 µM. As to `CCNc1ncnc2c([C@@H]3O[C@H](CO)[C@@H](O)[C@H]3O)n[nH]c12`, the CC50 at 48 h in series [1] is 5.7 µM. For the same molecule, in the series with Influenza A virus, the 50% inhibitory concentration (IC50) turned out to be 0.313 µM.

`CN(C)c1ncnc2c([C@@H]3O[C@H](CO)[C@@H](O)[C@H]3O)n[nH]c12`: the CC50 at 48 h in series [1] was 70 µM. In addition, the IC50 with Influenza A virus was 2.84 µM. `OC[C@H]1O[C@@H](c2n[nH]c3c(S)ncnc23)[C@H](O)[C@@H]1O`: the CC50 at 48 h in series [1] is 403 µM. Further, in the series with Influenza A virus, the IC50 amounted to 0.571 µM. Consider `CSc1nc(Cl)nc2c([C@@H]3O[C@H](CO)[C@@H](O)[C@H]3O)n[nH]c12`, for which, in series [1], the CC50 at 48 h was > 1000 µM. For the same molecule, the IC50 with Influenza A virus was > 1 µM. Consider `COc1ncnc2c([C@@H]3O[C@H](CO)[C@@H](O)[C@H]3O)n[nH]c12`, for which, in series [1], the half-maximal cytotoxic concentration (CC50) at 48 h was 1.2 µM. Besides, the IC50 in the series on Influenza A virus was 0.088 µM. Regarding `CSc1ncnc2c([C@@H]3O[C@H](CO)[C@@H](O)[C@H]3O)nn(C)c12`, the CC50 at 48 h in series [1] is 205 µM. Further, in the series on Influenza A virus, the IC50 was found to be 0.344 µM. `OC[C@H]1O[C@@H](c2n[nH]c3c(SC(F)(F)F)ncnc23)[C@H](O)[C@@H]1O`: the CC50 at 48 h in series [1] is 3.6 µM. For the same molecule, the IC50 with Influenza A virus was 0.397 µM. For `CSc1ncnc2c([C@@H]3O[C@H](CO)[C@@H](O)[C@]3(C)O)n[nH]c12`, in that order: > 1000 µM and 0.306 µM. As for `NC(=O)CSc1ncnc2c([C@@H]3O[C@H](CO)[C@@H](O)[C@H]3O)n[nH]c12`, the CC50 at 48 h in series [1] was 307 µM. In the case of `CCCCNc1ncnc2c([C@@H]3O[C@H](CO)[C@@H](O)[C@H]3O)n[nH]c12`, in series [1], the CC50 at 48 h was > 1000 µM. Moreover, the IC50 in the series on Influenza A virus was found to be 0.68 µM. For `OC[C@H]1O[C@@H](c2n[nH]c3c([SeH])ncnc23)[C@H](O)[C@@H]1O` the same measures were 5.6 µM and 0.035 µM.

Turning to `CSc1nc(SC)c2[nH]nc([C@@H]3O[C@H](CO)[C@@H](O)[C@H]3O)c2n1`, the CC50 at 48 h in series [1] is > 1000 µM. Besides, the IC50 with Influenza A virus is > 1 µM. In the case of `CSc1ncnc2c([C@@H]3O[C@H](CO)[C@@H](O)[C@@]3(C)O)n[nH]c12`, in series [1], the CC50 at 48 h is > 1000 µM. Besides, the IC50 in the series with Influenza A virus came to 2.59 µM. `OC[C@H]1O[C@@H](c2n[nH]c3c(-n4ccnn4)ncnc23)[C@H](O)[C@@H]1O`: the cytotoxic concentration (CC50) at 48 h in series [1] came out at 287 µM. For the same molecule, the IC50 in the series on Influenza A virus was found to be 0.343 µM. As to `C[Se]c1ncnc2c([C@@H]3O[C@H](CO)[C@@H](O)[C@H]3O)n[nH]c12`, the CC50 at 48 h in series [1] is < 0.1 µM. Besides, the IC50 in the series on Influenza A virus stood at 0.024 µM. For `C=CCSc1ncnc2c([C@@H]3O[C@H](CO)[C@@H](O)[C@H]3O)n[nH]c12` the same measures were 412 µM and 0.22 µM. In the case of `CSc1ncnc2c([C@@H]3O[C@H](CO)[C@H](O)[C@H]3O)n[nH]c12`, the CC50 at 48 h in series [1] was > 1000 µM. Turning to `CSc1nc(O)nc2c([C@@H]3O[C@H](CO)[C@@H](O)[C@H]3O)n[nH]c12`, the CC50 at 48 h in series [1] was > 1000 µM. Besides, the IC50 with Influenza A virus is > 1 µM. Regarding `OC[C@H]1O[C@@H](c2n[nH]c3c(-n4nccn4)ncnc23)[C@H](O)[C@@H]1O`, the CC50 at 48 h in series [1] was < 0.1 µM. The IC50 with Influenza A virus was determined as 0.103 µM.

Turning to `OC[C@H]1O[C@@H](c2nn3c4c(ncnc24)SCC3)[C@H](O)[C@@H]1O`, the half-maximal cytotoxic concentration (CC50) at 48 h in series [1] was 249 µM.

Turning to `OC[C@H]1O[C@@H](c2n[nH]c3c(N4CCCC4)ncnc23)[C@H](O)[C@@H]1O`, in series [1], the CC50 at 48 h was 211 µM. On to `CCCCSc1ncnc2c([C@@H]3O[C@H](CO)[C@@H](O)[C@H]3O)n[nH]c12`, for which the CC50 at 48 h in series [1] stood at 238 µM.

Turning to `OC[C@H]1O[C@@H](c2n[nH]c3c(-c4cnn[nH]4)ncnc23)[C@H](O)[C@@H]1O`, the CC50 at 48 h in series [1] was > 1000 µM. As for `CSc1ncnc2c([C@@H]3O[C@H](CO)C[C@H]3O)n[nH]c12`, the CC50 at 48 h in series [1] was > 1000 µM. As for `OC[C@H]1O[C@@H](c2n[nH]c3c(SCC(F)(F)F)ncnc23)[C@H](O)[C@@H]1O`, in series [1], the CC50 at 48 h came to 64 µM. In addition, the IC50 with Influenza A virus came out at 1.09 µM.

As for `CN[C@H]1[C@H](O)[C@@H](CO)O[C@H]1c1n[nH]c2c(SC)ncnc12`, in series [1], the CC50 at 48 h is 49 µM. On to `CSc1ncnc2c([C@@H]3O[C@H](CO)[C@@H](O)[C@H]3O)n(C)nc12`, for which the 50% cytotoxic concentration (CC50) at 48 h in series [1] is > 1000 µM. In the case of `CSc1ncnc2c([C@H]3C[C@H](O)[C@@H](CO)O3)n[nH]c12`, in series [1], the half-maximal cytotoxic concentration (CC50) at 48 h is > 1000 µM. The IC50 in the series on Influenza A virus is > 3 µM.

Turning to `OC[C@H]1O[C@@H](c2n[nH]c3c(NCCl)ncnc23)[C@H](O)[C@@H]1O`, the CC50 at 48 h in series [1] was determined as 19 µM. In addition, the IC50 with Influenza A virus was 0.282 µM. For `OC[C@H]1O[C@@H](c2n[nH]c3c(NC4CC4)ncnc23)[C@H](O)[C@@H]1O`, the CC50 at 48 h in series [1] stood at 431 µM. On to `CSc1ncnc2c([C@H]3C=C[C@@H](CO)O3)n[nH]c12`, for which, in series [1], the CC50 at 48 h came to 190 µM.

Take `CCSc1ncnc2c([C@@H]3O[C@H](CO)[C@@H](O)[C@H]3O)n[nH]c12`: in series [1], the CC50 at 48 h is > 1000 µM. Moreover, the IC50 in the series with Influenza A virus turned out to be 0.201 µM. On to `CSc1ncnc2c([C@@H](CO)OC(CO)CO)n[nH]c12`, for which the CC50 at 48 h in series [1] is > 1000 µM.

In the case of `CCc1ncnc2c([C@@H]3O[C@H](CO)[C@@H](O)[C@H]3O)n[nH]c12`, the CC50 at 48 h in series [1] was > 1000 µM.

Turning to `CSCc1ncnc2c([C@@H]3O[C@H](CO)[C@@H](O)[C@H]3O)n[nH]c12`, in series [1], the cytotoxic concentration (CC50) at 48 h is > 1000 µM. For `OC[C@H]1O[C@@H](c2n[nH]c3c(-n4cncn4)ncnc23)[C@H](O)[C@@H]1O`, the CC50 at 48 h in series [1] stood at 7.9 µM. In the series with Influenza A virus, the IC50 amounted to 0.251 µM. As for `O=c1[nH]cnc2c([C@@H]3O[C@H](CO)[C@@H](O)[C@H]3O)n[nH]c12` [FORMYCIN B], the CC50 at 48 h in series [1] worked out at 68 µM. Also, the IC50 with Influenza A virus turned out to be 3.63 µM. Take `Nc1ncnc2c([C@@H]3O[C@H](CO)[C@@H](O)[C@H]3O)[nH]nc12` [FORMYCIN]: the CC50 at 48 h in series [1] turned out to be 2.6 µM. Further, in the series with Influenza A virus, the IC50 is 0.029 µM.

The term CC50 denotes the concentration that lowers cell viability or growth by half. Usually IC50 stands for the concentration that gives 50% inhibition.

The values are drawn from ChEMBL document CHEMBL5131472, “Synthesis and antiviral activity of formycin derivatives with anti-influenza virus activity” (Bioorg Med Chem, 2022).
